These results are taken from US6197769A, “Indazole amide compounds as serotoninergic agents” (Aziende Chimiche Riunite Angelini Francesco A.C.R.A.F. …, priority 1997, dated 2001).

Where a name gives a salt, the structure may show the parent alone.

This experiment has as its target T1, 5-HT4 Receptor (Rattus norvegicus, UniProt Q62758).
T1 construct: serotonin-induced relaxation of rat oesophageal tunica; from tissue; host or cells: rat oesophageal tunica
Description: Antagonistic action on 5-HT4 receptor: inhibition of serotonin-induced relaxation of rat oesophageal tunica pre-contracted with carbachol. The settings on record: antagonism, read-out: pA2 (converted). On the procedure:
Antagonistic Action on 5-HT4 Receptor
The antagonistic action of the compounds of the formula (I) was evaluated by testing the influence of the compound under evaluation on serotonin-induced relaxation of rat oesophageal tunica pre-contracted with carbachol according to the method described by J. D. Gale et al. in "Br. J. Pharmacol.", 111, 332-338, (1994).

T1 sequence (Q62758 whole entry): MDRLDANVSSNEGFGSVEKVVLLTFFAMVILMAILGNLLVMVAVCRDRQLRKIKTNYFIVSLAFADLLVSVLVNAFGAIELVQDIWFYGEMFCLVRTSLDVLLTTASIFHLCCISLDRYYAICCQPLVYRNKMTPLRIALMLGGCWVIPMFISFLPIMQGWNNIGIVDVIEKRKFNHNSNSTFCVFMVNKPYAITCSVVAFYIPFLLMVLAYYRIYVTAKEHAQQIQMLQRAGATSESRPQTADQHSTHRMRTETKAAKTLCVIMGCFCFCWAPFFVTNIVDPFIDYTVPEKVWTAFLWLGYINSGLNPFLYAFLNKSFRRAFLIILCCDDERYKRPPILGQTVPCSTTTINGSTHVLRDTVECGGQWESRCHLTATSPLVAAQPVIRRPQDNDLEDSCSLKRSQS

As for `CC(C)n1nc(C(=O)NCC2CCN(CCc3ccccc3)CC2)c2ccccc21` [AFR 306, N3-{[1-(2-phenylethyl)-4-piperidinyl]methyl}-1-isopropyl-1H-3-indazolecarboxamide hydrochloride], the Kb is 0.437 nM. As to `CC(C)n1nc(C(=O)NCC2CCN(CCCCc3ccccc3)CC2)c2ccccc21` [AFR 603, N3-{[1-(4-phenylbutyl)-4-piperidinyl]methyl}-1-isopropyl-1H-3-indazolecarboxamide oxalate], the Kb was 0.759 nM. For `CC(C)n1nc(C(=O)NCC2CCN(CCC3CCCCC3)CC2)c2ccccc21` [AFR 604, N3-{[1-(2-cyclohexylethyl)-4-piperidinyl]methyl}-1-isopropyl-1H-3-indazolecarboxamide hydrochloride], the Kb is 6.46 nM.

In the case of `CC(C)n1nc(C(=O)NCC2CCN(CCc3ccccn3)CC2)c2ccccc21` [AFR 605, N3-({1-[2-(2-pyridinyl)ethyl]4-piperidinyl}methyl)-1-isopropyl-1H-3-indazolecarboxamide hydrochloride], the Kb is 0.0158 nM.
